Data set [1] in a line: Lipophilicity, log P of the compound. The format is physicochemical. Conditions: octanol/water; read-out: logP.
For data set [2], the target named is T1, Biliverdin-producing heme oxygenase (Neisseria meningitidis, UniProt Q9AH50).
T1 sequence (Q9AH50 whole entry): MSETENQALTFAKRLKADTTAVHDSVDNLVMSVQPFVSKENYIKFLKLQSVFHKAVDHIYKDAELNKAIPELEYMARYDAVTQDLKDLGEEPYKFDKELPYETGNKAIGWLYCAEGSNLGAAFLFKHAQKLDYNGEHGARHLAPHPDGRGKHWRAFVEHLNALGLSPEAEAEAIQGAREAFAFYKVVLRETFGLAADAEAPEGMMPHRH
Description: Binding affinity to Neisseria meningitidis wild type apo heme oxygenase expressed in Escherichia coli BL21(DE3) pLysS by spectrofluorimetric analysis.

The target of a further data set is T2, Heme oxygenase (Pseudomonas aeruginosa, UniProt O69002).
T2 sequence (O69002 whole entry): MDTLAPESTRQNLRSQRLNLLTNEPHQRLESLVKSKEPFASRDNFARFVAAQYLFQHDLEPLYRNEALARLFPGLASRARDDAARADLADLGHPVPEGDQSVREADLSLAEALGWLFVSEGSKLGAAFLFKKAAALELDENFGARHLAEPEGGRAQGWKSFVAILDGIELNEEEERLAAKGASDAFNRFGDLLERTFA
Description: Binding affinity to Pseudomonas aeruginosa MPAO1 wild type apo heme oxygenase by spectrofluorimetric analysis.

Data set [3] can be described thus: Solubility of the compound in methanol. The format is physicochemical.
Data set [4] concerns Pseudomonas aeruginosa. Nature of the data set: Antimicrobial activity against Pseudomonas aeruginosa MPAO1 after 10 hrs. The data set is classed as functional. Conditions: MPAO1, 10 h.
Data set [5] relates to Pseudomonas aeruginosa. Nature of the data set: Antimicrobial activity against Pseudomonas aeruginosa MPAO1 infected in Caenorhabditis elegans assessed as prolongation of survival of infected worms. The data set is classed as functional.
Data set [6] is described as follows: Solubility of the compound in methanol/ethanol. The data set is classed as physicochemical.
Data set [7] in a line: Solubility of the compound in ethanol. The data set is classed as physicochemical.
The test system of data set [8] is Pseudomonas aeruginosa. Nature of the data set: Growth inhibition of Pseudomonas aeruginosa MPAO1 at >250 uM after 10 hrs. The format is functional.
The test system of data set [9] is Pseudomonas aeruginosa. Nature of the data set: Growth inhibition of Pseudomonas aeruginosa MPAO1 at >=500 uM after 10 hrs in presence of 40 uM of Fe(3)-pyoverdin. The data set is classed as functional.
In data set [10] the test system is Pseudomonas aeruginosa. Description: Growth inhibition of Pseudomonas aeruginosa MPAO1 at 500 uM measured up to 6 hrs in presence of 25 uM of hemoglobin. The format is functional.
The nature of data set [11]: Decrease in heme oxygenase protein expression level in Pseudomonas aeruginosa MPAO1 at 0.5 mM measured every hr for 12 hrs in presence of 40 uM of Fe(3)-pyoverdin by Western blot analysis. The format is functional.
The nature of data set [12]: Decrease in heme oxygenase protein expression level in Pseudomonas aeruginosa MPAO1 at 0.5 mM measured after 6 hrs in presence of 40 uM of Fe(3)-pyoverdin by Western blot analysis. The data set is classed as functional.
Data set [13] is described as follows: Decrease in heme oxygenase protein expression level in Pseudomonas aeruginosa MPAO1 at 0.5 mM measured every hr for 12 hrs in presence of 25 uM of hemoglobin by Western blot analysis. The data set is classed as functional.
The test system of data set [14] is Pseudomonas aeruginosa. Nature of the data set: Growth inhibition of Pseudomonas aeruginosa MPAO1 assessed as cell growth recovery up to 1500 uM after 10 hrs in presence of 40 uM of Fe(3)-pyoverdin relative to control. The format is functional. On the set-up: scale not given: the % may be the effect or the level left.
Data set [15] has as its system Pseudomonas aeruginosa. Nature of the data set: Growth inhibition of Pseudomonas aeruginosa MPAO1 assessed as induction of slower cell growth at 500 uM measured up to 6 hrs. The format is functional.

Active and inactive are the calls of the source. No cut-off for these calls is given here.

On to `O=C(O)Cn1c(=O)c2cc3c(=O)n(CC(=O)O)c(=O)c3cc2c1=O`, for which the logP in [1] was -0.68. The Kd in data set [2] (read-out: Kd) was found to be 20.9 µM; on Heme oxygenase (read-out: Kd) it was 6.1 µM. The solubility entry in data set [3] is given as “Insoluble”.

Turning to `O=C(O)CSc1ncnc2ccccc12`, in data set [1], the lipophilicity (logP) was found to be 1.46. Moreover, in the data set with Pseudomonas aeruginosa [4], the MIC50 was more than 1000 µg/mL. The solubility result in [3] was “Insoluble”.

With `CN(C)c1ccc(/C=N/NC(=N)N)cc1`, the log partition coefficient (logP) in data set [1] is 3.77. The outcome in the data set on Pseudomonas aeruginosa [5] was Active. Also, the solubility result in [3] is “Soluble”.

Consider `CN(CC(=O)O)c1nc2ccc([N+](=O)[O-])cc2s1`, for which the lipophilicity (logP) in data set [1] amounted to 1.92. The Kd entry (in data set [2]; on Heme oxygenase) was “Active” throughout. Also, the solubility result in data set [3] was “Soluble”.

`O=[N+]([O-])c1ccc(O)c(/C=N/c2cccc(CO)c2)c1`: in data set [1], the logP was determined as 2.71. The solubility result in data set [6] was “Insoluble”.

For `O=C(Nc1ccc(-c2cn3ccccc3n2)cc1)c1ccccc1[N+](=O)[O-]`, the logP in data set [1] came to 3.56. This compound also yielded an MIC50 in the data set on Pseudomonas aeruginosa [4] of more than 380 µg/mL. Also, in [3], the solubility entry was “Soluble”.

As to `COc1ccc(C(=O)CCC(=O)O)c(C)c1`, the logP in data set [1] was 1.6. The Kd result (in data set [2]; at Heme oxygenase) was “Active” each time. Also, the solubility result in data set [7] is given as “Soluble”.

`COc1cc(/C=N/Cc2ccco2)ccc1O`: in data set [1], the log partition coefficient (logP) was determined as 2.07. Besides, the Kd entry (in data set [2]; at Heme oxygenase) was “Active” throughout. Further, in data set [3], the solubility entry is reported as “Soluble”.

`Nc1cc(-c2ccc(F)cc2)nc(N)n1`: the log partition coefficient (logP) in data set [1] amounted to 1.07. The dissociation constant Kd entry (in data set [2]; at Heme oxygenase) was “Active” in each case. Also, the solubility entry in [7] is recorded as “Soluble”.

For the compound `NC(=O)c1ccc(NC(=O)/C=C\C(=O)O)cc1Cl`, the lipophilicity (logP) in data set [1] was 0.79. The values for the Kd (in [2] (read-out: Kd); on Heme oxygenase (read-out: Kd)) were 239 µM and 187 µM, respectively. Moreover, in [3], the solubility result is listed as “Soluble”.

Regarding `O=[N+]([O-])c1cccc(CN2CCNCC2)c1`, in [1], the lipophilicity (logP) is 1.18. In the data set with Pseudomonas aeruginosa [4], the MIC50 was more than 1000 µg/mL. In addition, the solubility result in data set [3] is listed as “Soluble”.

Consider `Nc1cnccc1C(=O)O`, for which, in [1], the log partition coefficient (logP) lay within 0.32 to 3. Moreover, the Kd in data set [2] (read-out: Kd) stood at 33.5 µM; at Heme oxygenase (read-out: Kd), 44.7 µM.

In the case of `CCN(CC)c1ccc(/C=N/n2nnnc2N)c(O)c1`, in data set [1], the logP came out at 1.17. The Kd entry (in data set [2]; on Heme oxygenase) was “Active” each time. Also, in data set [3], the solubility entry is reported as “Soluble”.

On to `Cc1ccccc1C(=O)Nc1cc(C(=O)O)cc(C(=O)O)c1`, for which the logP in data set [1] came to 2.62. For the same compound, the equilibrium dissociation constant (Kd) was determined as 28.8 µM in [2] (read-out: Kd) and 72.8 µM at Heme oxygenase (read-out: Kd). In [3], the solubility result was “Insoluble”.

Consider `C(=N\Nc1nc(-c2cccnc2)cs1)/c1cccnc1`, for which the logP in data set [1] stood at 4.24. The Kd is 15.6 µM in [2] (read-out: Kd) and 20.9 µM on Heme oxygenase (read-out: Kd). In addition, the “growth inhibition (GI)” value in the data set on Pseudomonas aeruginosa [8], in the data set on Pseudomonas aeruginosa [9] and in the data set with Pseudomonas aeruginosa [10] was “Active” throughout. Further, the outcome (in data set [11]; in data set [12]; in data set [13]; in the data set with Pseudomonas aeruginosa [15]) was Active. The solubility result in data set [3] was “Insoluble”. Moreover, the Activity with Pseudomonas aeruginosa [14] was 40%.

On to `CC(=O)Oc1ccc(-c2cccc(C(=O)O)c2)cc1`, for which, in data set [1], the logP turned out to be 3.51. The same compound returned an MIC50 in the data set with Pseudomonas aeruginosa [4] of more than 1000 µg/mL. Besides, the solubility result in [3] is “Soluble”.

With `O=C(O)C(=O)Cc1c[nH]c2ccccc12`, the logP in data set [1] is 1.59. Further, the dissociation constant (Kd) entry (in [2]; at Heme oxygenase) was “Active” throughout. Besides, in [7], the solubility entry is “Soluble”.

As to `O=[N+]([O-])c1cccc(/C=N/Nc2ccc(S(=O)(=O)O)cc2)c1`, in data set [1], the logP worked out at 4.62. The MIC50 in the data set with Pseudomonas aeruginosa [4] was more than 1000 µg/mL. In addition, in [3], the solubility entry is “Insoluble”.

For `CN(C)c1ccc(/C=N/n2nnnc2N)cc1`, the logP in [1] stood at 0.76. Also, the figures for the Kd (in [2] (read-out: Kd); on Heme oxygenase (read-out: Kd)) were 14.1 µM and 15.8 µM, respectively. Further, in the data set on Pseudomonas aeruginosa [8], the “growth inhibition (GI)” value was “Active”.

The values are drawn from ChEMBL document CHEMBL3880431, “Heme oxygenase inhibitors, screening methods for heme oxygenase inhibitors and methods of use of heme oxygenase inhibitors for antimicrobial therapy” (2013).
